{
  "source": "patent US5719130A",
  "about": "“Anthracycline derivative having a trifluoromethylated sugar” (Zaidan Hojin Biseibutsu Kagaku Kenkyu Kai, priority 1994, dated 1998)",
  "key": {"[1]": {"system": "adriamycin-resistant P388 cells (P388/ADR)", "experiment": "In vitro inhibition of growth of adriamycin-resistant P388 cells, 72 hours (Test Example 3)", "assay_type": "cell-based, mouse", "conditions": "Mus musculus; P388/ADR, 72 hours", "description": "(§1) Furthermore, in order to estimate the antitumor activities of Compound (a) and Compound (b) of this invention represented by the general formula (I), as well as the adriamycinone derivative represented by the formula (II) (namely, Compound (c) of this invention), some \"in vitro\" tests for inhibiting proliferation of cancer cells were conducted as shown below.\n(§2) The above-mentioned Compound (a), Compound (b) or Compound (c) according to this invention were added at varying concentrations to mouse leukemia, P388 cells or adriamycin-resistant P388 cells (P388/ADR) which had been incubated in test tubes containing an appropriate culture medium. The incubation of the tumor cells were then continued for 72 hours from the addition of the test compound, and determination was made to evaluate such concentrations of the test compound which could inhibit the growth of the leukemia cells by 50% (namely, IC50' ng/ml). FT-DM, FT-ADM and adriamycin (as the hydrochloride) were used as comparative compounds and were tested in the same manner as above."}, "Leukemia L-1210 cells [2]": {"system": "Leukemia L-1210 cells", "experiment": "Antitumor activity against leukemia L-1210 in CDF1 mice, 30-day observation (Test Example 2)", "assay_type": "in vivo, mouse", "conditions": "9 days, 30 d observation, '>' = at least one of four mice survived 30 days", "description": "Since an elapsed time of 24 hours from the transplantation of the leukemia cells, Compound (c) of this invention was administered intraperitoneally to the mice under test for 9 consecutive days once per day. […] While, mice of the control group (the untreated group) were administered with only physiological saline after the transplantation of the L-1210 cells. During the observation period, the numbers of the surviving mice in the treated group and the control group were counted, and the mean survival days of mice in the treated group and in the control group were then calculated. From the mean survival day (C) of the untreated mice of the control group and the mean survival day (T) of the treated mice of the treated group, there were evaluated percentages (%) of the increase in the life-span of the treated mice as T/C %. For a comparison purpose, adriamycin was also tested in the same manner as above."}, "[3]": {"conditions": "clinical treatments, patients; cited from earlier work"}, "Leukemia L-1210 cells [4]": {"system": "Leukemia L-1210 cells", "experiment": "Antitumor activity against leukemia L-1210 in CDF1 mice, 60-day observation (Test Example 1)", "assay_type": "in vivo, mouse", "conditions": "for % Increase in life-span (T/C, %): 9 days, 60 d observation, '>' = at least one of four mice survived 60 days", "description": "Thus, to evaluate the antitumor effects of the new compounds of this invention against experimental tumors in animals, CDF1 mice (four mice per group) were intraperitoneally transplanted with cells of Leukemia L-1210 at an amount of 1×10^5 cells/mouse. Since an elapsed time of 24 hours from the transplantation of the leukemia cells, a test compound according to this invention was administered intraperitoneally to the mice under test for 9 consecutive days once per day. […] While, mice of the control group (the untreated group) were administered with only physiological saline after the transplantation of the L-1210 cells. During the observation period, the numbers of the surviving mice in the treated group and in the control group were counted, and the mean survival days of mice in the treated group and in the control group were then calculated. From the mean survival day (C) of the untreated mice of the control group and the mean survival day (T) of the treated mice of the treated group, there were evaluated percentages (%) of the increase in the life-span of the treated mice, as T/C %. For a comparison purpose, 7-O-(2,6-dideoxy-2-fluoro-α-L-talopyranosyl)daunomycinone (abbreviation: FT-DM); 7-O-(2,6-dideoxy-2-fluoro-α-L-talopyranosyl)adriamycinone (abbreviation: FT-ADM); daunomycin and adriamycin were also tested in the same manner as above. Incidentally, the mean survival day of mice of the control group (the untreated group) was amounting to 8 to 9 days, and the mean survival day of mice of the comparative groups having received the administration of adriamycin was varying dependently on the dosage of adriamycin."}, "P388 cells": {"system": "P388 cells", "experiment": "In vitro inhibition of growth of P388 cells, 72 hours (Test Example 3)", "assay_type": "cell-based, mouse", "conditions": "Mus musculus, P388, 72 h", "description": "as §1, §2"}},
  "data": [
    {"molecule": "COc1cccc2c1C(=O)c1c(O)c3c(c(O)c1C2=O)C[C@@](O)(C(=O)CO)C[C@@H]3O[C@H]1C[C@H](N)[C@H](O)[C@H](C)O1", "note": "[Adriamycin, adriamycin]", "values": [
      {"measurement": "IC50", "setting": "[1]", "result": 0.51, "unit": "µg/mL"},
      {"measurement": "% Increase in life-span (T/C, %)", "setting": "Leukemia L-1210 cells [2]; 0.15 mg/kg/day i.p.", "result": 140, "unit": "%"},
      {"measurement": "% Increase in life-span (T/C, %)", "setting": "Leukemia L-1210 cells [2]; 0.3 mg/kg/day i.p.", "result": 132, "unit": "%"},
      {"measurement": "% Increase in life-span (T/C, %)", "setting": "Leukemia L-1210 cells [2]; 0.6 mg/kg/day i.p.", "result": 208, "unit": "%"},
      {"measurement": "% Increase in life-span (T/C, %)", "setting": "Leukemia L-1210 cells [2]; 1.25 mg/kg/day i.p.", "result": 330, "unit": "%"},
      {"measurement": "% Increase in life-span (T/C, %)", "setting": "Leukemia L-1210 cells [2]; 2.5 mg/kg/day i.p.", "result": 273, "unit": "%"},
      {"measurement": "% Increase in life-span (T/C, %)", "setting": "Leukemia L-1210 cells [2]; 5 mg/kg/day i.p.", "result": 177, "unit": "%"},
      {"measurement": "serious side-effects (in words)", "setting": "[3]", "result": "serious side-effects such as leukocytopenia, alopecia, myocardiopathy and others"},
      {"measurement": "% Increase in life-span (T/C, %)", "setting": "Leukemia L-1210 cells [4]; 0.15 mg/kg/day i.p.", "result": 140, "unit": "%"},
      {"measurement": "% Increase in life-span (T/C, %)", "setting": "Leukemia L-1210 cells [4]; 0.3 mg/kg/day i.p.", "result": 132, "unit": "%"},
      {"measurement": "% Increase in life-span (T/C, %)", "setting": "Leukemia L-1210 cells [4]; 0.6 mg/kg/day i.p.", "result": 208, "unit": "%"},
      {"measurement": "% Increase in life-span (T/C, %)", "setting": "Leukemia L-1210 cells [4]; 1.25 mg/kg/day i.p.", "result": 330, "unit": "%"},
      {"measurement": "% Increase in life-span (T/C, %)", "setting": "Leukemia L-1210 cells [4]; 2.5 mg/kg/day i.p.", "result": 273, "unit": "%"},
      {"measurement": "percentages (%) of increase in life-span (T/C, %)", "setting": "Leukemia L-1210 cells [4]; 2.5 mg/kg/day to 5 mg/kg/day, about / approximately at maximum", "result": "approximately 330%"},
      {"measurement": "% Increase in life-span (T/C, %)", "setting": "Leukemia L-1210 cells [4]; 5 mg/kg/day i.p.", "result": 177, "unit": "%"},
      {"measurement": "development of toxicity (in words)", "setting": "Leukemia L-1210 cells [4]; 2.5 to 5 mg/kg/day for daunomycin, adriamycin, 0.3 to 1.25 mg/kg/day for Compound (b), low dosages for formula (I)", "result": "accompanied by development of toxicity"},
      {"measurement": "IC50", "setting": "P388 cells", "result": 0.017, "unit": "µg/mL"}
    ]}
  ]
}
